{"source": "patent US9409952B2", "about": "“Peptide-compound cyclization method” (Chugai Seiyaku Kabushiki Kaisha, priority 2011, dated 2016)", "key": {"[1]": {"experiment": "PAMPA (parallel artificial membrane permeability assay)", "format": "in vitro ADME", "conditions": "PAMPA", "how_it_was_run": "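Artificial membrane was 10% (w/v) egg lecithin plus 0.5% (w/v) cholesterol in dodecane on a PVDF filter. A 10 mM DMSO stock was added at 0.5% (v/v) to donor buffer (50 mM MOPSO, pH 6.5, 5.0% glycocholic acid). After 18 h at 37 °C, LC/MS or LC/UV gave donor and acceptor levels for Pe.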"}, "[2]": {"experiment": "Metabolic stability in human hepatic microsome", "format": "in vitro ADME", "conditions": "microsomes"}, "[3]": {"conditions": "membrane permeation rate (Pe), 50 mM MOPSO buffer pH 6.5 with 5.0% glycocholic acid, 37° C., 18 hours, read-out: iPAMPA Pe"}, "[4]": {"conditions": "pH 7.4, human hepatic microsome, NADPH(+), read-out: CL NADPH(+)"}}, "note": "Where two headings read alike, the source gives them in different places. Starred links: 1 amine or outer side, 2 acyl side, 3 side chain; linkers in the order of their positions; H or OH if unused. Positions of bridges follow the written chain, without caps; N, C: chain ends. Non-standard residues stand in square brackets, D forms with d. Residues, ends and D or L forms follow the SMILES beside them. *: point of attachment. NMePhe(3-Cl) = CN[C@@H](Cc1cccc(Cl)c1)C(=O)O; NMeF = CN[C@@H](Cc1ccccc1)C(=O)O; NMeGABA = CN(CCCC(=O)[*:2])[*:1]; NMeI = CC[C@H](C)[C@H](NC)C(=O)O; NMeβAla = CN(CCC(=O)[*:2])[*:1]; NMeL = CN[C@@H](CC(C)C)C(=O)O; NMeV = CN[C@H](C(=O)O)C(C)C; NMeA = CN[C@@H](C)C(=O)O; Piperidide = C1CCN(*)CC1; dNMeA = CN[C@H](C)C(=O)O; β3hA = C[C@H](N)CC(=O)O; Sar = CNCC(=O)O; tBu = CC(C)(C)*"}
{"smiles": "CC[C@H](C)[C@H]1C(=O)N[C@@H](C)CC(=O)N(C)[C@H](C)C(=O)N(C)[C@@H](Cc2cccc(Cl)c2)C(=O)N(C)[C@@H](CC(C)C)C(=O)N[C@@H]([C@@H](C)O)C(=O)N(C)CC(=O)N[C@@H](COC(C)(C)C)C(=O)N(C)[C@@H](CC(C)C)C(=O)N1C", "note": "[DP-799] (cyclo([NMeI][β3hA][dNMeA][NMePhe(3-Cl)][NMeL]T[Sar]S(tBu)[NMeL]))", "values": [{"measurement": "Papp at 18 hours, 50 µM", "setting": "[1]; [3]", "result": 32, "unit": "×10⁻⁶ cm/s"}, {"measurement": "microsomal CLint at 1 uM", "setting": "[2]; [4]", "result": 222, "unit": "µL/min/mg"}]}
{"smiles": "CC(C)C[C@H]1C(=O)N(C)[C@@H](C(C)C)C(=O)N(C)[C@@H](C)C(=O)N[C@H](C(=O)N2CCCCC2)CC(=O)N(C)CCC(=O)N[C@@H]([C@@H](C)O)C(=O)N[C@@H](C)C(=O)N(C)[C@@H](C)C(=O)N(C)[C@@H](Cc2ccccc2)C(=O)N(C)[C@@H](CC(C)C)C(=O)N[C@@H](Cc2ccccc2)C(=O)N1C", "note": "[DP-473] ([NMeβAla]TA[NMeA][NMeF][NMeL]F[NMeL][NMeV][NMeA]D-Piperidide; lactam N-11)", "values": [{"measurement": "Papp at 18 hours, 50 µM", "setting": "[1]; [3]", "result": 14, "unit": "×10⁻⁶ cm/s"}, {"measurement": "microsomal CLint at 1 uM", "setting": "[2]; [4]", "result": 82, "unit": "µL/min/mg"}]}
{"smiles": "CC(C)C[C@H]1C(=O)N[C@H](C(=O)N(C)[C@@H](Cc2ccccc2)C(=O)N[C@@H](C)C(=O)N2CCCCC2)CC(=O)N(C)[C@@H](C)C(=O)N[C@@H](Cc2ccccc2)C(=O)N(C)[C@@H](C(C)C)C(=O)N(C)[C@@H](C)C(=O)N[C@@H]([C@@H](C)O)C(=O)N(C)[C@@H](C)C(=O)N(C)[C@@H](CC(C)C)C(=O)N[C@@H](C)C(=O)N1C", "note": "[DP-296] ([NMeA]F[NMeV][NMeA]T[NMeA][NMeL]A[NMeL]D[NMeF]A-Piperidide; lactam N-10)", "values": [{"measurement": "Papp at 18 hours, 50 µM", "setting": "[1]; pH 6.5", "result": 15, "unit": "×10⁻⁶ cm/s"}, {"measurement": "microsomal CLint at 1 uM", "setting": "[2]; human, pH 7.4, CL NADPH(+)", "result": 64, "unit": "µL/min/mg"}]}
{"smiles": "CC(C)C[C@H]1C(=O)N[C@H](C(=O)N2CCCCC2)CC(=O)N(C)CCCC(=O)N(C)[C@@H](Cc2ccccc2)C(=O)N[C@@H]([C@@H](C)O)C(=O)N(C)[C@@H](C)C(=O)N[C@@H](COC(C)(C)C)C(=O)N1C", "note": "[DP-680] ([NMeGABA][NMeF]T[NMeA]S(tBu)[NMeL]D-Piperidide; lactam N-7)", "values": [{"measurement": "Papp at 18 hours, 50 µM", "setting": "[1]; [3]", "result": 15, "unit": "×10⁻⁶ cm/s"}, {"measurement": "microsomal CLint at 1 uM", "setting": "[2]; [4]", "result": 96, "unit": "µL/min/mg"}]}
{"smiles": "CC(C)C[C@H]1C(=O)N[C@@H](Cc2ccccc2)C(=O)N(C)[C@@H](C(C)C)C(=O)N(C)[C@@H](C)C(=O)N(C)[C@@H](Cc2ccccc2)C(=O)N[C@@H]([C@@H](C)O)C(=O)NCC(=O)N[C@H](C(=O)N(C)[C@@H](Cc2ccccc2)C(=O)N[C@@H](C)C(=O)N2CCCCC2)CC(=O)N(C)[C@@H](C)C(=O)N[C@@H](C)C(=O)N1C", "note": "[DP-375] ([NMeA]A[NMeL]F[NMeV][NMeA][NMeF]TGD[NMeF]A-Piperidide; lactam N-10)", "values": [{"measurement": "Papp at 18 hours, 50 µM", "setting": "[1]; [3]", "result": 19, "unit": "×10⁻⁶ cm/s"}, {"measurement": "microsomal CLint at 1 uM", "setting": "[2]; [4]", "result": 39, "unit": "µL/min/mg"}]}
{"smiles": "CC[C@H](C)[C@H]1C(=O)N[C@@H](C)C(=O)N[C@H](C(=O)N2CCCCC2)CC(=O)N[C@H](C)C(=O)N[C@@H](Cc2ccccc2)C(=O)N(C)[C@@H](CC(C)C)C(=O)N[C@@H](CC(C)C)C(=O)N[C@@H](Cc2ccccc2)C(=O)N2CCC[C@H]2C(=O)N[C@@H]([C@@H](C)O)C(=O)N[C@@H](COC(C)(C)C)C(=O)N(C)CC(=O)N1C", "note": "[DP-88] ([dA]F[NMeL]LFPTS(tBu)[Sar][NMeI]AD-Piperidide; lactam N-12)", "values": [{"measurement": "Papp at 18 hours, 50 µM", "setting": "[1]; pH 6.5", "result": 13, "unit": "×10⁻⁶ cm/s"}, {"measurement": "microsomal CLint at 1 uM", "setting": "[2]; human, pH 7.4, CL NADPH(+)", "result": 32, "unit": "µL/min/mg"}]}
{"smiles": "CC[C@H](C)[C@@H]1NC(=O)[C@H](CC(C)C)N(C)C(=O)[C@H](Cc2ccccc2)NC(=O)[C@H]([C@@H](C)O)NC(=O)[C@H](CC(C)C)N(C)C(=O)[C@H](C(C)C)N(C)C(=O)[C@@H](C)N(C)C(=O)C[C@@H](C(=O)N2CCCCC2)NC(=O)[C@H](CC(C)C)NC(=O)[C@H](Cc2ccccc2)N(C)C1=O", "note": "[DP-432] ([dNMeA][NMeV][NMeL]TF[NMeL]I[NMeF]LD-Piperidide; lactam N-10)", "values": [{"measurement": "Papp at 18 hours, 50 µM", "setting": "[1]; [3]", "result": 26, "unit": "×10⁻⁶ cm/s"}, {"measurement": "microsomal CLint at 1 uM", "setting": "[2]; [4]", "result": 396, "unit": "µL/min/mg"}]}
{"smiles": "CC(C)C[C@@H]1NC(=O)[C@H](CC(C)C)N(C)C(=O)C[C@@H](C(=O)N2CCCCC2)NC(=O)[C@H](CC(C)C)N(C)C(=O)[C@H](C)N(C)C(=O)[C@H]([C@@H](C)O)NC(=O)[C@H](CC(C)C)N(C)C(=O)[C@H](Cc2ccccc2)N(C)C(=O)[C@H](Cc2c[nH]cn2)NC(=O)[C@H](Cc2ccccc2)N(C)C(=O)[C@H](CC(C)C)N(C)C1=O", "note": "[DP-906] ([NMeL]L[NMeL][NMeF]H[NMeF][NMeL]T[NMeA][NMeL]D-Piperidide; lactam N-11)", "values": [{"measurement": "Papp at 18 hours, 50 µM", "setting": "[1]; [3]", "result": 0.65, "unit": "×10⁻⁶ cm/s"}, {"measurement": "microsomal CLint at 1 uM", "setting": "[2]; [4]", "result": 49, "unit": "µL/min/mg"}]}
{"smiles": "CC(C)C[C@@H]1NC(=O)[C@H](CC(C)C)N(C)C(=O)[C@H](Cc2ccccc2)NC(=O)[C@H](C)NC(=O)[C@H](C(C)C)N(C)C(=O)CN(C)C(=O)[C@H]([C@@H](C)O)NC(=O)[C@H](C)N(C)C(=O)[C@H](CC(C)C)N(C)C(=O)[C@H](C)NC(=O)C[C@@H](C(=O)N(C)[C@@H](Cc2ccccc2)C(=O)N[C@@H](C)C(=O)N2CCCCC2)NC1=O", "note": "[DP-177] (A[NMeL][NMeA]T[Sar][NMeV]AF[NMeL]LD[NMeF]A-Piperidide; lactam N-11)", "values": [{"measurement": "Papp at 18 hours, 50 µM", "setting": "[1]; [3]", "result": 23, "unit": "×10⁻⁶ cm/s"}, {"measurement": "microsomal CLint at 1 uM", "setting": "[2]; [4]", "result": 27, "unit": "µL/min/mg"}]}
